The subject of one series is IGFBP-1. In words: IGFBP-1 mRNA expression in HepG2 cells. Particulars: for IGFBP1 mRNA: four hours, UTC = 100. Type of series: cell-based, human.
The test system of a further series is leptin. The series can be described thus: Leptin secretion by adipocytes (ELISA). The settings on record: adipocytes, 250 nM oligomeric compound, day nine post-transfection, relative to control (1.0); Table 16. Type of series: cell-based, human. As to the method:
Leptin secretion into the medium in which adipocytes are cultured is measured by protein ELISA. On day nine post-transfection, 96-well plates are coated with a monoclonal antibody to human leptin (R&D Systems, Minneapolis, Minn.) and left at 4° C. overnight. The plates are blocked with bovine serum albumin (BSA), and a dilution of the treated adipoctye medium is incubated in the plate at room temperature for approximately 2 hours. After washing to remove unbound components, a second monoclonal antibody to human leptin (conjugated with biotin) is added. The plate is then incubated with strepavidin-conjugated horse radish peroxidase (HRP) and enzyme levels are determined by incubation with 3, 3′,5,5′-tetramethlybenzidine, which turns blue when cleaved by HRP. The OD450 is read for each well, where the dye absorbance is proportional to the leptin concentration in the cell lysate.
Leptin is also a marker for differentiated adipocytes. In the adipocyte assay, leptin secretion into the media above the differentiated adipocytes was measured by protein ELISA. Cell growth, transfection and differentiation procedures were carried out as described for the Triglyceride accumulation assay (see below). On day nine post-transfection, 96-well plates were coated with a monoclonal antibody to human leptin (R&D Systems, Minneapolis, Minn.) and left at 4° C. overnight. The plates were blocked with bovine serum albumin (BSA), and a dilution of the media was incubated in the plate at RT for 2 hours. After washing to remove unbound components, a second monoclonal antibody to human leptin (conjugated with biotin) was added. The plate was then incubated with strepavidin-conjugated horseradish peroxidase (HRP) and enzyme levels are determined by incubation with 3, 3′, 5,5′-Tetramethlybenzidine, which turns blue when cleaved by HRP. The OD450 was read for each well, where the dye absorbance is proportional to the leptin concentration in the cell lysate. Results are expressed as a percent±standard deviation relative to transfectant-only controls.
On the technique in general: In an ELISA, binding on a coated surface is turned into a signal by an enzyme label.

[1] abbreviates: HepG2 cells, Experiment 1, basal (no insulin).
Where [2] appears, read: Experiment 1, basal (no insulin), HepG2, 100 nM oligomeric compound.
Where [3] appears, read: Experiment 2, 1 nM insulin treated, HepG2, 100 nM oligomeric compound.
Where [4] appears, read: Experiment 3, basal (no insulin), HepG2 cells, 48 hours post-transfection.
Setting [5] is: Experiment 4, insulin-sensitization: HepG2 cells treated with 1 nM insulin for four hours, 48 h post-transfection, mRNA by real-time PCR.

The values below come from US8178506B2, “Oligomeric compounds and compositions for use in modulation of small non-coding RNAs” (Regulus Therapeutics Inc., priority 2003, dated 2012).

In the oligonucleotide strings, read from the 5' end, every base follows the letter of its sugar. An asterisk marks phosphorothioate; unmarked linkages are phosphodiester. Other units and linkages are bracketed, terminal groups are in braces. A string of capitals states the bases alone. e = 2'-O-(2-methoxyethyl) (MOE); [5mC] = 5-methylcytosine; d = 2'-deoxy (DNA)

For the substance “327893 (antisense eA*eA*e[5mC]*e[5mC]*eA*e[5mC]*eA*e[5mC]*eA*eA*e[5mC]*e[5mC]*eT*eA*e[5mC]*eT*eA*e[5mC]*e[5mC]*eT*e[5mC]*eA) [compound 327893]”, in the series with IGFBP-1 (setting [1]), the “IGFBP1 mRNA” value stood at 107. Further, the “Leptin (secretion)” value with leptin worked out at 1.14.
Regarding “327925 (antisense eT*eA*eG*e[5mC]*eT*eG*eG*eT*eT*eG*eA*eA*eG*eG*eG*eG*eA*e[5mC]*e[5mC]*eA*eA) [compound 327925]”, the “IGFBP-1 (% UTC)” value in the series with IGFBP-1 (setting [2]) is 152 % UTC; in the series with IGFBP-1 (setting [3]), 166 % UTC. Besides, the “Leptin (secretion)” value with leptin came out at 1.40.
With “327941 (antisense eA*eA*e[5mC]*e[5mC]*e[5mC]*eA*e[5mC]*e[5mC]*eG*eA*e[5mC]*eA*eG*e[5mC]*eA*eA*eT*eG*eA*eA*eT*eG*eT*eT) [compound 327941]”, the “IGFBP-1 (% UTC)” value in the series with IGFBP-1 (setting [2]) is listed as 83 % UTC; in the series with IGFBP-1 (setting [3]), 80 % UTC. Moreover, in the series with leptin, the “Leptin (secretion)” value amounted to 0.54.
With “327922 (antisense eT*e[5mC]*eA*eG*eT*eT*eT*eT*eG*e[5mC]*eA*eT*eG*eG*eA*eT*eT*eT*eG*e[5mC]*eA*e[5mC]*eA) [compound 327922]”, the “IGFBP-1 (% UTC)” value is reported as 109 % UTC in the series with IGFBP-1 (setting [2]) and 104 % UTC with IGFBP-1 (setting [3]). In addition, the “Leptin (secretion)” value in the series with leptin is given as 1.25.
For the substance “327903 (antisense eA*eA*e[5mC]*eT*eA*eT*eA*e[5mC]*eA*eA*e[5mC]*e[5mC]*eT*eA*e[5mC]*eT*eA*e[5mC]*e[5mC]*eT*e[5mC]*eA) [compound 327903]”, the figures for the “IGFBP-1 (% UTC)” value in the series on IGFBP-1 (setting [2]) and with IGFBP-1 (setting [3]) were 71 % UTC and 81 % UTC, respectively. Further, in the series with leptin, the “Leptin (secretion)” value amounted to 1.61.
Regarding “327901 (antisense eT*eG*eA*eG*e[5mC]*eT*eA*e[5mC]*eA*eG*eT*eG*e[5mC]*eT*eT*e[5mC]*eA*eT*e[5mC]*eT*e[5mC]*eA) [compound 327901]”, the “IGFBP-1 (% UTC)” value with IGFBP-1 (setting [2]) turned out to be 133 % UTC; in the series on IGFBP-1 (setting [3]), 135 % UTC. In the series with leptin, the “Leptin (secretion)” value is recorded as 1.02.
For the substance “327888 (antisense eA*eA*eT*eG*e[5mC]*e[5mC]*e[5mC]*e[5mC]*eT*eA*eA*eA*eA*eA*eT*e[5mC]*e[5mC]*eT*eT*eA*eT) [compound 327888]”, the “Leptin (secretion)” value in the series with leptin is 1.38.
For the substance “327934 (antisense eG*eG*eT*eA*e[5mC]*eA*eA*eT*e[5mC]*eA*eA*e[5mC]*eG*eG*eT*e[5mC]*eG*eA*eT*eG*eG*eT) [compound 327934]”, the “IGFBP-1 (% UTC)” value stood at 231 % UTC in the series on IGFBP-1 (setting [2]) and 244 % UTC in the series with IGFBP-1 (setting [3]). Further, the “Leptin (secretion)” value in the series with leptin came to 1.25.
In the same order, the values of “327889 (antisense eG*eT*eG*eG*eT*eA*eA*eT*e[5mC]*e[5mC]*e[5mC]*eT*eG*eG*e[5mC]*eA*eA*eT*eG*eT*eG*eA*eT) [compound 327889]” are 56 % UTC, 73 % UTC and 1.05.
For the substance “328677 (eT*e[5mC]*e[5mC]*eT*eG*dG*dA*dT*dG*dA*dT*dA*dT*d[5mC]*dT*eA*e[5mC]*e[5mC]*eT*e[5mC]; antisense) [compound 328677]”, the “IGFBP-1 (% UTC)” value amounted to 208 % UTC in the series on IGFBP-1 (setting [4]) and 159 % UTC in the series on IGFBP-1 (setting [5]).
As to “327931 (antisense eA*eA*e[5mC]*e[5mC]*eA*eT*eA*e[5mC]*eA*eA*e[5mC]*e[5mC]*eT*eA*e[5mC]*eT*eA*e[5mC]*e[5mC]*eT*e[5mC]*eA) [compound 327931]”, the “Leptin (secretion)” value in the series on leptin is 1.12.
In the case of “328125 (antisense eT*eA*eT*eG*eA*eA*eA*eT*eG*e[5mC]*e[5mC]*eA*eG*eA*eG*e[5mC]*eT*eG*e[5mC]*e[5mC]*eA) [compound 328125]”, the “IGFBP1 mRNA expression” value with IGFBP-1 (Experiment 2, insulin treated: HepG2 cells transfected with oligomeric compound, 1 nM insulin for four hours, UTC + 1 nM insulin = 100) is 216.
Take “327890 (antisense eA*eG*e[5mC]*eA*e[5mC]*eA*eA*eA*e[5mC]*eT*eA*e[5mC]*eT*eA*e[5mC]*e[5mC]*eT*e[5mC]*eA) [compound 327890]”: the results for the “IGFBP-1 (% UTC)” value in the series on IGFBP-1 (setting [2]) and with IGFBP-1 (setting [3]) were 99 % UTC and 88 % UTC, respectively. For the same substance, the “Leptin (secretion)” value with leptin is recorded as 1.36.
In the same order, the values of “327905 (antisense e[5mC]*eA*eG*eA*e[5mC]*eT*e[5mC]*e[5mC]*eG*eG*eT*eG*eG*eA*eA*eT*eG*eA*eA*eG*eG*eA) [compound 327905]” are 107 % UTC, 115 % UTC and 1.62.
Consider “327886 (antisense e[5mC]*eG*e[5mC]*eG*eT*eA*e[5mC]*e[5mC]*eA*eA*eA*eA*eG*eT*eA*eA*eT*eA*eA*eT*eG) [compound 327886]”, for which, in the series on IGFBP-1 (setting [1]), the “IGFBP1 mRNA” value is recorded as 176.
For “328759 (antisense eG*eA*eG*eG*eG*dA*dT*dT*dG*dT*dA*dT*dG*dA*dA*e[5mC]*eA*eT*e[5mC]*eT) [compound 328759]”, the figures for the “IGFBP-1 (% UTC)” value with IGFBP-1 (setting [4]) and in the series on IGFBP-1 (setting [5]) were 356 % UTC and 212 % UTC, respectively.
For the substance “327919 (antisense eG*eA*eA*eA*e[5mC]*e[5mC]*e[5mC]*eA*eG*e[5mC]*eA*eG*eA*e[5mC]*eA*eA*eT*eG*eT*eA*eG*e[5mC]*eT) [compound 327919]”, the “IGFBP-1 (% UTC)” value with IGFBP-1 (setting [2]) was determined as 96 % UTC; in the series with IGFBP-1 (setting [3]) it was 154 % UTC. The “Leptin (secretion)” value in the series with leptin stood at 1.44.
Take “327967 (antisense eA*e[5mC]*eT*eG*eT*eA*e[5mC]*eA*eA*eA*e[5mC]*eT*eA*e[5mC]*eT*eA*e[5mC]*e[5mC]*eT*e[5mC]*eA) [compound 327967]”: the “Leptin (secretion)” value with leptin amounted to 1.22.
Take “341807 (antisense CTGGGACTTTGTAGGCCAGTT; all 2'-MOE, all phosphorothioate, methylation of C not given here) [compound 341807]”: in the series with IGFBP-1 (setting [1]), the “IGFBP1 mRNA” value is 129.
Regarding “327880 (antisense eA*e[5mC]*eA*eA*eA*eT*eT*e[5mC]*eG*eG*eT*eT*e[5mC]*eT*eA*e[5mC]*eA*eG*eG*eG*eT*eA) [compound 327880]”, the “IGFBP-1 (% UTC)” value in the series with IGFBP-1 (setting [2]) was found to be 137 % UTC; with IGFBP-1 (setting [3]), 136 % UTC.
